Experimental data reported in US12630501B2, “Anti-fibrotic compounds and use thereof” (HADASIT MEDICAL RESEARCH SERVICES AND DEVELOPMENT LTD., priority 2019, dated 2026).

How the values were obtained:
[1] = tested on: Ku70; experiment: Ku70 immunoprecipitation with pan-acetyl / Ku70 immunoblot in IPF-lung myofibroblasts; type: cell-based, human; settings: CMH 30 μM, 72 h
Experimental: (§1) Human lung myofibroblasts Differentiated fibroblasts from IPF-lungs and controls from patient lung biopsies performed for tumor diagnosis were obtained under a protocol detailed in Wallach-Dayan et al., J. Autoimmun. 59: 67-76, 2015. LL 97A (AlMy) (ATCC® CCL-191™)-IPF-lung, and LL 24 (ATCC® CCL-151™)-normal lung fibroblast cell lines were used.
(§2) Immunoprecipitation and immunoblotting Standard protocols were performed as described in Golan-Gerstl et al., Am. J. Respir. Cell Mol. Biol. 47: 271-279, 2012.
(§3) FLIP downregulation from an OD of 1.85 to 0.49 (about 3.5-fold) was detected in WB (FIG. 4F), and a […] from a mean fluorescence intensity (MFI)=10^3 to only 10^1 was detected with flow cytometry (FIG. 4G). Thus, SIRT1-mediated Ku70-deacetylation stabilizes IPF-lung myofibroblast FLIP via Ku70/FLIP complex. This effect of CMH on Ku70 further disrupts Ku70/FLIP complex and destabilizes FLIP in IPF-lung myofibroblasts.
IPF cell line ATCC-191 (0.5×10^6), were exposed in culture (10% DMEM) to a compound of Formula 6 (1 or 3 μM) vs. 4% DMSO (vehicle) for 16 h. Ku70 immunoprecipitation with subsequent pan-acetyl (FIG. 8A) and immunoblots of Ku70 with anti-Ku70 mAb (FIG. 8B) or FLIP with anti-FLIP mAb (FIG. 8C) were measured. […] IPF-lung myofibroblasts decreased FLIP expression from an OD of 1.00 to 0.51 (about twofold, FIG. 8C).

[2] = tested on: Ku70/FLIP complex; experiment: Ku70 immunoprecipitation with FLIP immunoblot in IPF-lung myofibroblasts; type: cell-based, human; settings: CMH 30 μM, 72 h
Experimental: as §1, §2, §3

[3] = molecular target: T1, HDAC6 (Homo sapiens, UniProt Q9UBN7); settings: prostate cancer cells; cited from earlier work
T1 sequence (Q9UBN7 1-1215): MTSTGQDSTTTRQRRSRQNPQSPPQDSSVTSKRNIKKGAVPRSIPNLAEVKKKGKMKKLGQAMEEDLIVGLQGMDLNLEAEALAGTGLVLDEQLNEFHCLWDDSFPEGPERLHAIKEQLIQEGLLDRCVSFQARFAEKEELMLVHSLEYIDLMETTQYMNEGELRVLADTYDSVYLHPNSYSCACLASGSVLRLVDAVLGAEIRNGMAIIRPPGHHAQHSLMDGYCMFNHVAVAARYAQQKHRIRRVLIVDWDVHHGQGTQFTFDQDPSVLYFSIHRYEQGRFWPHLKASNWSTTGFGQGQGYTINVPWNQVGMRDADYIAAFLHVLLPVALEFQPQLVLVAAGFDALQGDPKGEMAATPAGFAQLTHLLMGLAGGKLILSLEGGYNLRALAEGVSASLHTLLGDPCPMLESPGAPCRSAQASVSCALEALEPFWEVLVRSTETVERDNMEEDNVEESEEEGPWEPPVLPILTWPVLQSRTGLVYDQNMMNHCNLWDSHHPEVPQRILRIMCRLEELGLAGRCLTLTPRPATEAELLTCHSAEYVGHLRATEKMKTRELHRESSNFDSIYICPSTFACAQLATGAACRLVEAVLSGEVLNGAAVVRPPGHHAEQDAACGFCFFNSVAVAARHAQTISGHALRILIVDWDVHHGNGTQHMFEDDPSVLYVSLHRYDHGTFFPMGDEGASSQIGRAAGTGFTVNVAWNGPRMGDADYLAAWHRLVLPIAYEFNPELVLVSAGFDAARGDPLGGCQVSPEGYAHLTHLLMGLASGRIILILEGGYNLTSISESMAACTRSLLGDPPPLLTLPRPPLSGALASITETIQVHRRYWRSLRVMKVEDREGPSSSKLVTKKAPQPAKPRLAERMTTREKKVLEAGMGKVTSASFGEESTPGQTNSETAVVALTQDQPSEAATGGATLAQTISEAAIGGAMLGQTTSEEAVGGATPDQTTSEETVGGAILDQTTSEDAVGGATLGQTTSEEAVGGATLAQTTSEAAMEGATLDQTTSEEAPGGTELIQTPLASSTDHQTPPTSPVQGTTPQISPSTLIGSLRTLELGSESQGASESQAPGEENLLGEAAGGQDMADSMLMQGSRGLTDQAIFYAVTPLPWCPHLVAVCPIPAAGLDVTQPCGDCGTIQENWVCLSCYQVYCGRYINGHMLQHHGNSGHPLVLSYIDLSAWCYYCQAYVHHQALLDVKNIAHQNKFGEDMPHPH

[4] = molecular target: T2, HDAC8 (Homo sapiens, UniProt Q9BY41); settings: prostate cancer cells; cited from earlier work
T2 sequence (Q9BY41 1-377): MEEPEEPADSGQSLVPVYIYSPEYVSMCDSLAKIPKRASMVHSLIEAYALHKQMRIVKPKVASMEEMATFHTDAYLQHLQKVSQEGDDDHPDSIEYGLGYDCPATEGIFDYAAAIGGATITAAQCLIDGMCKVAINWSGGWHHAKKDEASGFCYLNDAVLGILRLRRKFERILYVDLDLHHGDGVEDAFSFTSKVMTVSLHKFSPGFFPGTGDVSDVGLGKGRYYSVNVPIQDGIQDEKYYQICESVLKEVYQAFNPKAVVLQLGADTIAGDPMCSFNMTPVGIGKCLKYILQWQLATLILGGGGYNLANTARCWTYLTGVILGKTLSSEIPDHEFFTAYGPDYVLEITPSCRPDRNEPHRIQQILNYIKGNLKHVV

[5] = cited from earlier work

SMILES: Cc1cc(Cl)ccc1OCCCC(=O)NO [CMH, 4-(4-chloro-2-methylphenoxy)-N-hydroxybutanamide]
- Increase of Ku70 acetylation [1]: about twofold
- Ku70 acetylation, optical density ratio (OD) in pan-acetyl IB of Ku70 IP ([1]; from 2.43 before): 5.6 OD
- Decrease of Ku70/FLIP complex [2]: about 1.5 fold
- Ku70/FLIP complex in FLIP-IB ([2]; from 6.2): 4.1 OD
- Inhibition of HDAC6 [3]: Selective inhibition
- Inhibition of HDAC8 [4]: Selective inhibition
- Water solubility [5]: low
